According to US20240409585A1, “MACROCYCLIC IMMUNOMODULATORS” (priority 2021, published 2024):
Bridge positions count the residues as written; N and C are the ends. Square brackets hold non-standard residues; d marks the D form. Peptide text beside a SMILES is read from it. * marks the point of attachment. ξ: configuration not given here. Ala(1H-tetrazol-5-yl) = N[C@@H](Cc1nnn[nH]1)C(=O)O; Phe(4-COOH) = N[C@@H](Cc1ccc(C(=O)O)cc1)C(=O)O; Phe(3,4-F2) = N[C@@H](Cc1ccc(F)c(F)c1)C(=O)O; Bip = N[C@@H](Cc1ccc(-c2ccccc2)cc1)C(=O)O; Phe(3-OMe) = COc1cccc(C[C@H](N)C(=O)O)c1; Phe(3-Me) = Cc1cccc(C[C@H](N)C(=O)O)c1; 3Pal = N[C@@H](Cc1cccnc1)C(=O)O; 4Pal = N[C@@H](Cc1ccncc1)C(=O)O; Cha = N[C@@H](CC1CCCCC1)C(=O)O; Cit = NC(=O)NCCC[C@H](N)C(=O)O; Ile(3ξ) = CCC(C)[C@H](N)C(=O)O; Thr(3ξ) = CC(O)[C@H](N)C(=O)O; NEtAla = CCN[C@@H](C)C(=O)O; Carboxymethyl = O=C(O)C*; NMeA = CN[C@@H](C)C(=O)O; Orn = NCCC[C@H](N)C(=O)O; Dab = NCC[C@H](N)C(=O)O; Dap = NC[C@H](N)C(=O)O; ξC = NC(CS)C(=O)O

The compounds below were run against T1, PE-labeled human PD-L1-Ig binding to Jurkat cell line over-expressing human PD-1 (Jurkat-PD-1) (Homo sapiens, UniProt Q15116) (assay: Jurkat-PD-1 Cell Binding High-Content Screening Assay (CBA): Method 1). Conditions: Jurkat-hPD-1 cells, PE-labeled PD-L1-Ig 20 nM final; read-out: Jurkat HPDL1 PD1 IC50 (uM) (Method 1).
T1 construct: expressed in transfected cells; host or cells: Jurkat
T1 sequence (Q15116 25-288): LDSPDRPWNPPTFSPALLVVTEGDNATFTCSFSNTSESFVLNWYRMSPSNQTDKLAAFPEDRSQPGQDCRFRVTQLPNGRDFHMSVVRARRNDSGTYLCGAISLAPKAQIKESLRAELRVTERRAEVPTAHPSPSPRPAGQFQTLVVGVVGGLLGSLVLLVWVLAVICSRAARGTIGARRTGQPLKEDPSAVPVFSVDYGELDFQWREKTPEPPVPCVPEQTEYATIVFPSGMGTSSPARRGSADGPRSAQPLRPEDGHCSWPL

SMILES	IC50 [µM]
CCC(C)[C@@H]1NC(=O)[C@H](Cc2ccc(-c3ccccc3)cc2)NC(=O)[C@H](C(C)C)NC(=O)[C@H](Cc2c[nH]c3ccccc23)NC(=O)[C@H](CC(=O)O)NC(=O)[C@H](Cc2ccc(OCC(=O)O)cc2)NC(=O)[C@H](C(C)O)NC(=O)CSC[C@@H](C(=O)N[C@H](CC(N)=O)C(N)=O)NC(=O)[C@H](CO)NC(=O)[C@H](C(C)C)NC(=O)[C@H](CC2CCCCC2)NC(=O)[C@H](CCN)NC(=O)[C@@H](CC(C)C)NC(=O)[C@H](C)N(C)C1=O (stereo partly drawn) [Compound 2117] ({CH2CO}-[Thr(3ξ)]Y(Carboxymethyl)DWV[Bip][Ile(3ξ)][NMeA][dL][Dab][Cha]VSC[dN]-NH2; thioether N-14)	0.02
CC(=O)NCCC[C@@H]1NC(=O)[C@H](Cc2ccc(-c3ccccc3)cc2)NC(=O)[C@H](Cc2ccc(O)cc2)NC(=O)[C@H](Cc2cccc(C)c2)NC(=O)[C@H](CC(=O)O)NC(=O)[C@H](Cc2ccc(OCC(=O)O)cc2)NC(=O)[C@H](CCCNC(=N)N)NC(=O)CSC[C@@H](C(N)=O)NC(=O)[C@H]([C@@H](C)O)NC(=O)[C@H](C(C)C)NC(=O)[C@H](CC2CCCCC2)NC(=O)[C@H](CCN)NC(=O)[C@@H](CC(C)C)NC(=O)[C@H](C)N(C)C1=O [Compound 1869] ({CH2CO}-RY(Carboxymethyl)D[Phe(3-Me)]Y[Bip][Orn](Ac)[NMeA][dL][Dab][Cha]VTC-NH2; thioether N-14)	0.05
Cc1cccc(C[C@@H]2NC(=O)[C@H](CC(=O)O)NC(=O)[C@H](Cc3ccc(C(=O)O)cc3)NC(=O)[C@H](Cc3ccc(OCC(=O)O)cc3)NC(=O)CSC[C@@H](C(=O)N[C@@H](CC(=O)O)C(N)=O)NC(=O)[C@H](CO)NC(=O)[C@H](C(C)C)NC(=O)[C@H](CC(C)C)NC(=O)[C@H](CC(N)=O)NC(=O)[C@@H](CC(C)C)NC(=O)[C@H](C)N(C)C(=O)[C@H](C(C)C)NC(=O)[C@H](Cc3ccc(-c4ccccc4)cc3)NC(=O)[C@H](CC(C)C)NC2=O)c1 [Compound 1602] ({CH2CO}-Y(Carboxymethyl)[Phe(4-COOH)]D[Phe(3-Me)]L[Bip]V[NMeA][dL]NLVSCD-NH2; thioether N-14)	0.01
CC(C)C[C@@H]1NC(=O)[C@H](CCN)NC(=O)[C@@H](CC(C)C)NC(=O)[C@H](C)N(C)C(=O)[C@H](CCCNC(N)=O)NC(=O)[C@H](Cc2ccc(-c3ccccc3)cc2)NC(=O)[C@H](C(C)C)NC(=O)[C@H](Cc2c[nH]c3ccccc23)NC(=O)[C@H](CC(=O)O)NC(=O)[C@H](Cc2ccc(O)cc2)NC(=O)[C@H](CC(N)=O)NC(=O)CSC[C@@H](C(=O)N[C@@H](CCC(=O)O)C(N)=O)NC(=O)[C@H](CO)NC(=O)[C@H](C(C)C)NC1=O [Compound 1233] ({CH2CO}-NYDWV[Bip][Cit][NMeA][dL][Dab]LVSCE-NH2; thioether N-14)	0.05
COc1cccc(C[C@@H]2NC(=O)[C@H](Cc3cccnc3)NC(=O)CSCC(C(=O)N[C@@H](CN)C(=O)O)NC(=O)[C@H](CO)NC(=O)[C@H](C(C)C)NC(=O)[C@H](CC(C)C)NC(=O)[C@H](CC(N)=O)NC(=O)[C@@H](CC(C)C)NC(=O)[C@H](C)N(C)C(=O)[C@H](C(C)C)NC(=O)[C@H](Cc3ccc(-c4ccccc4)cc3)NC(=O)[C@H](C(C)C)NC(=O)[C@H](Cc3c[nH]c4ccccc34)NC(=O)[C@H](CC(=O)O)NC2=O)c1 (stereo partly drawn) [Compound 2211] ({CH2CO}-[3Pal][Phe(3-OMe)]DWV[Bip]V[NMeA][dL]NLVS[ξC][Dap]-OH; thioether N-14)	0.08
CC(C)C[C@@H]1NC(=O)[C@H](Cc2c[nH]c3ccccc23)NC(=O)[C@H](Cc2nn[nH]n2)NC(=O)[C@H](Cc2ccc(O)cc2)NC(=O)[C@H](Cc2ccccc2)NC(=O)CSC[C@@H](C(=O)N[C@@H](C)C(N)=O)NC(=O)[C@H](CO)NC(=O)[C@H](C(C)C)NC(=O)[C@H](CC(C)C)NC(=O)[C@H](CC(N)=O)NC(=O)[C@@H](C)NC(=O)[C@H](C)N(C)C(=O)[C@H](C(C)C)NC(=O)[C@H](Cc2ccc(-c3ccccc3)cc2)NC1=O [Compound 1540] ({CH2CO}-FY[Ala(1H-tetrazol-5-yl)]WL[Bip]V[NMeA][dA]NLVSCA-NH2; thioether N-14)	0.03
Cc1cccc(C[C@@H]2NC(=O)[C@H](CC(=O)O)NC(=O)[C@H](Cc3ccc(C(=O)O)cc3)NC(=O)[C@H](CN)NC(=O)CSC[C@@H](C(=O)N[C@@H](C)C(N)=O)NC(=O)[C@H]([C@@H](C)O)NC(=O)[C@H](C(C)C)NC(=O)[C@H](CC(C)C)NC(=O)[C@H](CCN)NC(=O)[C@@H](CC(C)C)NC(=O)[C@H](C)N(C)C(=O)[C@H](CCCNC(N)=O)NC(=O)[C@H](Cc3ccc(-c4ccccc4)cc3)NC(=O)[C@H](C(C)C)NC2=O)c1 [Compound 1429] ({CH2CO}-[Dap][Phe(4-COOH)]D[Phe(3-Me)]V[Bip][Cit][NMeA][dL][Dab]LVTCA-NH2; thioether N-14)	0.01
CCN1C(=O)[C@H](CCCNC(=N)N)NC(=O)[C@H](Cc2ccc(-c3ccccc3)cc2)NC(=O)[C@H](C(C)C)NC(=O)[C@H](Cc2c[nH]c3ccccc23)NC(=O)[C@H](CC(=O)O)NC(=O)[C@H](Cc2ccc(O)cc2)NC(=O)[C@H](CC(N)=O)NC(=O)CSC[C@@H](C(=O)N[C@@H](C)C(N)=O)NC(=O)[C@H]([C@@H](C)O)NC(=O)[C@H](C(C)C)NC(=O)[C@H](CC(C)C)NC(=O)[C@H](CCN)NC(=O)[C@@H](CC(C)C)NC(=O)[C@@H]1C [Compound 1207] ({CH2CO}-NYDWV[Bip]R[NEtAla][dL][Dab]LVTCA-NH2; thioether N-14)	0.07
CC(C)C[C@@H]1NC(=O)[C@H](CCCNC(=N)N)NC(=O)[C@@H](CC(C)C)NC(=O)[C@H](C)N(C)C(=O)[C@H](CCCNC(=N)N)NC(=O)[C@H](Cc2ccc(-c3ccccc3)cc2)NC(=O)[C@H](C(C)C)NC(=O)[C@H](Cc2ccc(F)c(F)c2)NC(=O)[C@H](CC(=O)O)NC(=O)[C@H](Cc2ccc(O)cc2)NC(=O)[C@H](CC(N)=O)NC(=O)CSC[C@@H](C(=O)N[C@@H](C)C(N)=O)NC(=O)[C@H]([C@@H](C)O)NC(=O)[C@H](C(C)C)NC1=O [Compound 1194] ({CH2CO}-NYD[Phe(3,4-F2)]V[Bip]R[NMeA][dL]RLVTCA-NH2; thioether N-14)	0.69
CC(C)C[C@@H]1NC(=O)[C@H](CC(N)=O)NC(=O)[C@@H](CC(C)C)NC(=O)[C@H](C)N(C)C(=O)[C@H](CCC(=O)O)NC(=O)[C@H](Cc2ccc(-c3ccccc3)cc2)NC(=O)[C@H](C(C)C)NC(=O)[C@H](Cc2c[nH]c3ccccc23)NC(=O)[C@H](CC(=O)O)NC(=O)[C@H](Cc2ccc(O)cc2)NC(=O)[C@H](Cc2ccncc2)NC(=O)CSC[C@@H](C(N)=O)NC(=O)[C@H]([C@@H](C)O)NC(=O)[C@H](C(C)C)NC1=O [Compound 1631] ({CH2CO}-[4Pal]YDWV[Bip]E[NMeA][dL]NLVTC-NH2; thioether N-14)	0.11
Cc1cccc(C[C@@H]2NC(=O)[C@H](Cc3cccnc3)NC(=O)CSC[C@@H](C(=O)NCC(N)=O)NC(=O)[C@H](CO)NC(=O)[C@H](C(C)C)NC(=O)[C@H](CC(C)C)NC(=O)[C@H](CC(N)=O)NC(=O)[C@@H](CC(C)C)NC(=O)[C@H](C)N(C)C(=O)[C@H](C(C)C)NC(=O)[C@H](Cc3ccc(-c4ccccc4)cc3)NC(=O)[C@H](CC(C)C)NC(=O)[C@H](Cc3c[nH]c4ccccc34)NC(=O)[C@H](CC(=O)O)NC2=O)c1 [Compound 1520] ({CH2CO}-[3Pal][Phe(3-Me)]DWL[Bip]V[NMeA][dL]NLVSCG-NH2; thioether N-14)	0.01
CC(C)C[C@@H]1NC(=O)[C@H](CC(N)=O)NC(=O)[C@@H](CC(C)C)NC(=O)[C@H](C)N(C)C(=O)[C@H](CCCNC(N)=O)NC(=O)[C@H](Cc2ccc(-c3ccccc3)cc2)NC(=O)[C@H](C(C)C)NC(=O)[C@H](Cc2c[nH]c3ccccc23)NC(=O)[C@H](CC(=O)O)NC(=O)[C@H](Cc2ccc(O)cc2)NC(=O)[C@H](Cc2ccccc2)NC(=O)CSC[C@@H](C(=O)N[C@@H](C)C(=O)N[C@@H](CCCN)C(=O)O)NC(=O)[C@H](CO)NC(=O)[C@H](C(C)C)NC1=O [Compound 2237] ({CH2CO}-FYDWV[Bip][Cit][NMeA][dL]NLVSCA[Orn]-OH; thioether N-14)	0.01
CC(C)C[C@@H]1NC(=O)[C@H](CCCN)NC(=O)[C@@H](CC(C)C)NC(=O)[C@H](C)N(C)C(=O)[C@H](CCCNC(=N)N)NC(=O)[C@H](Cc2ccc(-c3ccccc3)cc2)NC(=O)[C@H](C(C)C)NC(=O)[C@H](Cc2c[nH]c3ccccc23)NC(=O)[C@H](CC(=O)O)NC(=O)[C@H](Cc2ccc(C(=O)O)cc2)NC(=O)[C@H](Cc2cnc[nH]2)NC(=O)CSC[C@@H](C(=O)N[C@@H](C)C(N)=O)NC(=O)[C@H]([C@@H](C)O)NC(=O)[C@H](C(C)C)NC1=O [Compound 1149] ({CH2CO}-H[Phe(4-COOH)]DWV[Bip]R[NMeA][dL][Orn]LVTCA-NH2; thioether N-14)	0.07
COc1cccc(C[C@@H]2NC(=O)[C@H](CN)NC(=O)CSC[C@@H](C(=O)N[C@@H](C)C(N)=O)NC(=O)[C@H]([C@@H](C)O)NC(=O)[C@H](C(C)C)NC(=O)[C@H](CC(C)C)NC(=O)[C@H](CCN)NC(=O)[C@@H](CC(C)C)NC(=O)[C@H](C)N(C)C(=O)[C@H](CCCNC(=N)N)NC(=O)[C@H](Cc3ccc(-c4ccccc4)cc3)NC(=O)[C@H](C(C)C)NC(=O)[C@H](Cc3c[nH]c4ccccc34)NC(=O)[C@H](CC(=O)O)NC2=O)c1 [Compound 1453] ({CH2CO}-[Dap][Phe(3-OMe)]DWV[Bip]R[NMeA][dL][Dab]LVTCA-NH2; thioether N-14)	0.08
CC(C)C[C@@H]1NC(=O)[C@H](CCCNC(=N)N)NC(=O)[C@@H](CC(C)C)NC(=O)[C@H](C)N(C)C(=O)[C@H](CCC(=O)O)NC(=O)[C@H](Cc2ccc(-c3ccccc3)cc2)NC(=O)[C@H](C(C)C)NC(=O)[C@H](Cc2c[nH]c3ccccc23)NC(=O)[C@H](CC(=O)O)NC(=O)[C@H](Cc2ccc(O)cc2)NC(=O)[C@H](CC(N)=O)NC(=O)CSC[C@@H](C(=O)N[C@@H](C)C(N)=O)NC(=O)[C@H](CCCN)NC(=O)[C@H](C(C)C)NC1=O [Compound 1250] ({CH2CO}-NYDWV[Bip]E[NMeA][dL]RLV[Orn]CA-NH2; thioether N-14)	0.07
